Measurements published in ChEMBL document CHEMBL1201862, “PubChem BioAssay data set” (2004).
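Briefly, cells in 96-well plates were exposed to five compound concentrations for 48 h, and endpoints were estimated by linear interpolation. GI50 marks 50% less growth.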 Activity calls are given as the source filed them. Rule as the data show it: active = GI50 up to about 1.1 µM and inactive = higher.

Key:
Assay in all cases: inhibition of tumour cell growth, NCI panel, 48 h
COLO 205 = system: COLO 205
SK-MEL-5 = system: SK-MEL-5
TK-10 = system: TK-10
CCRF-CEM = system: CCRF-CEM
UACC-257 = system: UACC-257
Hs-578T = system: Hs-578T
MOLT-4 = system: MOLT-4
SF-539 = system: SF-539
UO-31 = system: UO-31
SR = system: SR
SNB-75 = system: SNB-75
NCI/ADR-RES = system: NCI/ADR-RES
SK-OV-3 = system: SK-OV-3
MDA-MB-435 = system: MDA-MB-435
SNB-19 = system: SNB-19
RPMI-8226 = system: RPMI-8226
KM12 = system: KM12
NCI-H460 = system: NCI-H460
SK-MEL-28 = system: SK-MEL-28
PC-3 = system: PC-3

Measured: GI50

CCCCc1ccc(Nc2nc(Cl)c3[nH]cnc3n2)cc1
inactive: COLO 205 24.2 µM | SK-MEL-5 16.7 µM | TK-10 22.8 µM | CCRF-CEM 39.1 µM | UACC-257 16.2 µM | Hs-578T 24.5 µM | MOLT-4 20.4 µM | SF-539 18.7 µM | UO-31 23.8 µM | SR 47.8 µM | SNB-75 33 µM | NCI/ADR-RES 19.3 µM | SK-OV-3 34.3 µM | MDA-MB-435 16.8 µM | SNB-19 19.1 µM | RPMI-8226 33.2 µM | KM12 17.1 µM

O=c1o[nH]/c(=N/c2ccccc2)n1-c1ccccc1
inactive: COLO 205 > 100 µM | SK-MEL-5 > 100 µM | TK-10 > 100 µM | CCRF-CEM > 100 µM | NCI-H460 > 100 µM | UACC-257 > 100 µM | Hs-578T > 100 µM | MOLT-4 > 100 µM | SF-539 > 100 µM | UO-31 > 100 µM | SK-MEL-28 > 100 µM | SR > 100 µM | SNB-75 > 100 µM | NCI/ADR-RES > 100 µM | SK-OV-3 > 100 µM | SNB-19 > 100 µM | KM12 > 100 µM | PC-3 > 100 µM

C/C(=N/NC(=S)N(C)C)c1ccccc1O
inactive: COLO 205 13.7 µM | SK-MEL-5 7.67 µM | TK-10 13.3 µM | CCRF-CEM 2.88 µM | NCI-H460 2.26 µM | UACC-257 17.1 µM | Hs-578T > 72.4 µM | MOLT-4 20.5 µM | SF-539 8.91 µM | UO-31 8.67 µM | SK-MEL-28 26.4 µM | SNB-75 6.82 µM | NCI/ADR-RES 3.53 µM | SK-OV-3 > 44.5 µM | MDA-MB-435 21.6 µM | SNB-19 > 59.8 µM | RPMI-8226 > 31.8 µM | KM12 8.85 µM | PC-3 10.1 µM

O=C(NCCCCCCNC(=O)c1cccc2ccccc12)Nc1cccc2ccccc12
inactive: COLO 205 > 100 µM | SK-MEL-5 > 100 µM | TK-10 > 100 µM | CCRF-CEM > 100 µM | NCI-H460 > 100 µM | UACC-257 > 100 µM | Hs-578T > 100 µM | MOLT-4 > 100 µM | SF-539 > 100 µM | UO-31 45.7 µM | SK-MEL-28 > 100 µM | SNB-75 > 100 µM | NCI/ADR-RES > 100 µM | MDA-MB-435 > 100 µM | SNB-19 > 100 µM | RPMI-8226 > 100 µM | KM12 > 100 µM | PC-3 > 100 µM

O=C1C(OC(=O)c2ccccc2)=C(c2ccc(O)cc2)C(=O)C(OC(=O)c2ccccc2)=C1c1ccc(O)cc1
inactive: COLO 205 > 100 µM | SK-MEL-5 > 100 µM | TK-10 > 100 µM | CCRF-CEM 42.9 µM | NCI-H460 74.1 µM | UACC-257 > 100 µM | Hs-578T > 100 µM | MOLT-4 36 µM | SF-539 > 100 µM | UO-31 > 100 µM | SK-MEL-28 > 100 µM | SNB-75 78.5 µM | NCI/ADR-RES > 100 µM | SK-OV-3 56.2 µM | MDA-MB-435 > 100 µM | SNB-19 46 µM | RPMI-8226 > 100 µM | KM12 60.5 µM | PC-3 > 100 µM

N#CC1(C#N)C(C#N)(C#N)C12CCCCCC2
inactive: COLO 205 15.7 µM | SK-MEL-5 18 µM | TK-10 16.8 µM | CCRF-CEM 1.85 µM | NCI-H460 > 47.1 µM | UACC-257 13.9 µM | MOLT-4 5.45 µM | SF-539 13.6 µM | UO-31 18.5 µM | SK-MEL-28 8.57 µM | SR 22.1 µM | SNB-75 22.9 µM | SK-OV-3 > 64.4 µM | SNB-19 29.4 µM | RPMI-8226 3.28 µM | KM12 14 µM

Cc1ccc(/N=N/N(C)C(=O)C(C)N)cc1 (stereo not drawn)
inactive: COLO 205 > 100 µM | SK-MEL-5 > 100 µM | TK-10 > 100 µM | CCRF-CEM > 100 µM | NCI-H460 > 100 µM | UACC-257 > 100 µM | MOLT-4 > 100 µM | SF-539 > 100 µM | UO-31 34.4 µM | SK-MEL-28 > 100 µM | SR 26.9 µM | SNB-75 > 100 µM | NCI/ADR-RES > 100 µM | MDA-MB-435 > 100 µM | SNB-19 > 100 µM | RPMI-8226 16.1 µM | KM12 > 100 µM | PC-3 > 100 µM

CCCCOC(=O)C(=O)C(CC(C(=O)Cc1ccccc1)c1ccccc1)C(=O)C=C(C)C (stereo not drawn)
inactive: COLO 205 > 100 µM | SK-MEL-5 > 100 µM | TK-10 > 100 µM | CCRF-CEM 76.6 µM | NCI-H460 > 100 µM | UACC-257 > 100 µM | Hs-578T > 100 µM | MOLT-4 83.9 µM | SF-539 > 100 µM | UO-31 > 100 µM | SK-MEL-28 > 100 µM | SNB-75 > 100 µM | NCI/ADR-RES > 100 µM | SK-OV-3 > 100 µM | MDA-MB-435 > 100 µM | SNB-19 > 100 µM | KM12 > 100 µM | PC-3 > 100 µM
